From patent publication US10633407B2, “14-membered ketolides and methods of their preparation and use” (President and Fellows of Harvard College, priority 2014, dated 2020)
Values after ≈ are worked out from the molar mass of the structure shown. Like-named read-outs stand apart in the source and are kept apart here.

How the values were obtained:
Experiment in all cases: CLSI broth dilution MIC determination
Assay type in all cases: cell-based
[1] = test system: P. aeruginosa ATCC 27853
[2] = test system: K. pneumoniae ATCC 10031
[3] = test system: A. baumannii IMP-4
[4] = test system: S. pyogenes Macrolide-resistant
[5] = test system: S. aureus erm A genotype
Summary of the method: (§1)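 The lowest inhibitory concentration was found by broth dilution done to CLSI standards. Resistance genotypes on the panel can be constitutive or inducible, and azithromycin and solithromycin accompany many tests as reference macrolides.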

[6] = test system: S. pneumoniae erm B + mef A genotype; details: Streptococcus pneumoniae
Summary of the method: as §1

[7] = test system: E. coli TEM-1
Summary of the method: as §1

[8] = test system: S. pneumoniae mef A genotype (second strain so labelled)
Summary of the method: as §1

[9] = test system: E. coli NDM-1
Summary of the method: as §1

[10] = test system: E. coli ATCC 25922
Summary of the method: as §1

[11] = test system: S. pneumoniae ATCC 49619
Summary of the method: as §1

[12] = test system: S. aureus MRSA: USA100
Summary of the method: as §1

[13] = test system: H. influenzae ATCC49247
Summary of the method: as §1

[14] = test system: E. coli CTX-M-14
Summary of the method: as §1

[15] = test system: S. aureus USA600, GISA
Summary of the method: as §1

[16] = test system: S. aureus ATCC 29213
Summary of the method: as §1

[17] = test system: S. aureus MRSA: USA300
Summary of the method: as §1

[18] = test system: K. pneumoniae TEM-10
[19] = test system: S. pneumoniae erm B + tet(M,O) genotype; details: Streptococcus pneumoniae
Summary of the method: as §1

[20] = test system: P. aeruginosa HPA101-1477
[21] = test system: A. baumannii ATCC 19606
[22] = test system: K. pneumoniae SHV-12
[23] = test system: A. baumannii chromosomal class C
[24] = test system: E. faecalis Vancomycin-resistant
[25] = test system: A. baumannii imipenem-resistant
[26] = test system: K. pneumoniae KPC-2
[27] = test system: E. faecalis ATCC 29212
[28] = test system: H. influenzae Erythro >4, Azithro 1
Description: MIC data was collected for the novel macrolides that this platform has produced against over 21 unique strains of B. subtilis, E. coli, S. aureus, S. pneumoniae, and H. influenzae, including several multidrug-resistant strains, with a special focus on macrolide resistant mechanisms (vide supra). […] CLSI standard procedures for broth dilution MIC determination were used. […] These genotypes can be constitutive or inducible.

[29] = test system: S. pyogenes ATCC 19615
[30] = Haemophilus influenzae, read-out: MIC
[31] = Acinetobacter baumannii, read-out: MIC

**Q.** How did the MIC ([1]; P. aeruginosa ATCC 27853, Gram-negative) turn out when `CC[C@H]1OC(=O)[C@@](C)(F)C(=O)[C@H](C)[C@@H](O[C@@H]2OC(C)CC(N(C)C)C2O)[C@](C)(OC)C[C@@H](C)C(=O)[C@H](C)[C@H]2N(CC#CCn3cc(-c4cccc(N)c4)nn3)C(=O)O[C@]12C` (some centres unmarked) [FSM-100426] was run?
**A.** > 32 µg/mL

**Q.** What about the MIC ([1]; Pseudomonas aeruginosa, ATCC27853, P. aeruginosa ATCC 27853 (MP-3), read-out: MIC) of the same compound?
**A.** > 32 µg/mL

**Q.** What about the MIC ([2]; K. pneumoniae ATCC 10031, Gram-negative) of the same compound?
**A.** 8 µg/mL (≈ 9.51 µM)

**Q.** And the MIC ([2]; Klebsiella pneumoniae, ATCC10031, K. pneumoniae ATCC 10031 (MP-14), read-out: MIC)?
**A.** 8 µg/mL (≈ 9.51 µM)

**Q.** And the MIC ([3]; Acinetobacter baumannii, IMP4, read-out: MIC)?
**A.** > 32 µg/mL

**Q.** What about the MIC ([3]; Gram-negative) of the same compound?
**A.** > 32 µg/mL

**Q.** And the MIC ([4]; S. pyogenes Macrolide-resistant, Gram-positive)?
**A.** < 0.0312 µg/mL

**Q.** And the MIC ([4]; Streptococcus pyogenes, S. pyogenes Macrolide-resistant (MP-625 UNT-014), read-out: MIC)?
**A.** < 0.0312 µg/mL

**Q.** And the MIC ([5]; S. aureus erm A genotype, Gram-positive)?
**A.** > 32 µg/mL

**Q.** What about the MIC ([5]; Staphylococcus aureus, S. aureus erm A genotype (MP-620 UNT-146), read-out: MIC) of the same compound?
**A.** > 32 µg/mL

**Q.** And the MIC [6]?
**A.** < 0.0312 µg/mL

**Q.** What about the MIC ([7]; E. coli TEM-1, Gram-negative) of the same compound?
**A.** > 32 µg/mL

**Q.** And the MIC ([7]; Escherichia coli, TEM1)?
**A.** > 32 µg/mL

**Q.** What about the MIC ([8]; Gram-positive) of the same compound?
**A.** < 0.0312 µg/mL

**Q.** What about the MIC ([8]; Streptococcus pneumoniae, second strain (MP-627 UNT-039), read-out: MIC) of the same compound?
**A.** < 0.0312 µg/mL

**Q.** And the MIC ([9]; Escherichia coli, NDM1, read-out: MIC)?
**A.** > 32 µg/mL

**Q.** And the MIC ([9]; Gram-negative)?
**A.** > 32 µg/mL

**Q.** What about the MIC ([10]; E. coli ATCC 25922, Gram-negative) of the same compound?
**A.** 32 µg/mL (≈ 38.1 µM)

**Q.** What about the MIC ([10]; Escherichia coli, ATCC25922, E. coli ATCC 25922 (MP-4), read-out: MIC) of the same compound?
**A.** 32 µg/mL (≈ 38.1 µM)

**Q.** What about the MIC ([11]; S. pneumoniae ATCC 49619, Gram-positive) of the same compound?
**A.** < 0.0312 µg/mL

**Q.** What about the MIC ([11]; Streptococcus pneumoniae, ATCC49619, S. pneumoniae ATCC 49619 (MP-21), read-out: MIC) of the same compound?
**A.** < 0.0312 µg/mL

**Q.** What about the MIC ([12]; S. aureus MRSA: USA100, Gram-positive) of the same compound?
**A.** > 32 µg/mL

**Q.** What about the MIC ([12]; Staphylococcus aureus, S. aureus MRSA: USA100 (MP-618 UNT-096), read-out: MIC) of the same compound?
**A.** > 32 µg/mL

**Q.** What about the MIC ([13]; Gram-negative) of the same compound?
**A.** 4 µg/mL (≈ 4.76 µM)

**Q.** What about the MIC [13, 30] of the same compound?
**A.** 4 µg/mL (≈ 4.76 µM)

**Q.** What about the MIC ([14]; Escherichia coli, CTXM14, read-out: MIC) of the same compound?
**A.** > 32 µg/mL

**Q.** What about the MIC ([14]; Gram-negative) of the same compound?
**A.** > 32 µg/mL

**Q.** What about the MIC ([15]; S. aureus USA600, GISA, Gram-positive) of the same compound?
**A.** 32 µg/mL (≈ 38.1 µM)

**Q.** What about the MIC ([15]; Staphylococcus aureus, S. aureus USA600, GISA (MP-619 UNT-120), read-out: MIC) of the same compound?
**A.** 32 µg/mL (≈ 38.1 µM)

**Q.** What about the MIC ([16]; S. aureus ATCC 29213, Gram-positive) of the same compound?
**A.** 0.0625 µg/mL (≈ 0.0743 µM)

**Q.** And the MIC ([16]; Staphylococcus aureus, ATCC29213, S. aureus ATCC 29213 (MP-12), read-out: MIC)?
**A.** 0.0625 µg/mL (≈ 0.0743 µM)

**Q.** What about the MIC ([17]; S. aureus MRSA: USA300, Gram-positive) of the same compound?
**A.** 0.5 µg/mL (≈ 0.595 µM)

**Q.** What about the MIC ([17]; Staphylococcus aureus, S. aureus MRSA: USA300 (MP-549, msr(a)), read-out: MIC) of the same compound?
**A.** 0.5 µg/mL (≈ 0.595 µM)

**Q.** And the MIC ([18]; Gram-negative)?
**A.** > 32 µg/mL

**Q.** And the MIC ([18]; Klebsiella pneumoniae, TEM10, read-out: MIC)?
**A.** > 32 µg/mL

**Q.** What about the MIC [19] of the same compound?
**A.** < 0.0312 µg/mL

**Q.** What about the MIC ([20]; Gram-negative) of the same compound?
**A.** > 32 µg/mL

**Q.** What about the MIC ([20]; Pseudomonas aeruginosa, HPA1011477, read-out: MIC) of the same compound?
**A.** > 32 µg/mL

**Q.** What about the MIC ([21]; A. baumannii ATCC 19606, Gram-negative) of the same compound?
**A.** 16 µg/mL (≈ 19 µM)

**Q.** And the MIC ([21]; Acinetobacter baumannii, ATCC19606, A. baumannii ATCC 19606 (MP-15), read-out: MIC)?
**A.** 16 µg/mL (≈ 19 µM)

**Q.** What about the MIC ([22]; Gram-negative) of the same compound?
**A.** > 32 µg/mL

**Q.** And the MIC ([22]; Klebsiella pneumoniae, SHV12, read-out: MIC)?
**A.** > 32 µg/mL

**Q.** What about the MIC [23, 31] of the same compound?
**A.** 32 µg/mL (≈ 38.1 µM)

**Q.** What about the MIC ([23]; Gram-negative) of the same compound?
**A.** 32 µg/mL (≈ 38.1 µM)

**Q.** And the MIC ([24]; E. faecalis Vancomycin-resistant, Gram-positive)?
**A.** 8 µg/mL (≈ 9.51 µM)

**Q.** And the MIC ([24]; Enterococcus faecalis, E. faecalis Vancomycin-resistant (UNT-039), read-out: MIC)?
**A.** 8 µg/mL (≈ 9.51 µM)

**Q.** What about the MIC [25, 31] of the same compound?
**A.** 8 µg/mL (≈ 9.51 µM)

**Q.** And the MIC ([25]; Gram-negative)?
**A.** 8 µg/mL (≈ 9.51 µM)

**Q.** What about the MIC ([26]; Gram-negative) of the same compound?
**A.** > 32 µg/mL

**Q.** And the MIC ([26]; Klebsiella pneumoniae, KPC2, read-out: MIC)?
**A.** > 32 µg/mL

**Q.** And the MIC ([27]; E. faecalis ATCC 29212, Gram-positive)?
**A.** < 0.0312 µg/mL

**Q.** What about the MIC ([27]; Enterococcus faecalis, ATCC29212, E. faecalis ATCC 29212 (MP-24), read-out: MIC) of the same compound?
**A.** < 0.0312 µg/mL

**Q.** And the MIC ([28]; H. influenzae Erythro >4, Azithro 1, Gram-negative)?
**A.** 4 µg/mL (≈ 4.76 µM)

**Q.** What about the MIC [28, 30] of the same compound?
**A.** 4 µg/mL (≈ 4.76 µM)

**Q.** What about the MIC ([29]; S. pyogenes ATCC 19615, Gram-positive) of the same compound?
**A.** < 0.0312 µg/mL

**Q.** And the MIC ([29]; Streptococcus pyogenes, ATCC19615, S. pyogenes ATCC 19615 (MP-19), read-out: MIC)?
**A.** < 0.0312 µg/mL
